Test results from patent US7691416B2, “Methods of treating vascular disease” (priority 2002, dated 2010).

Tested on: graft infiltration by activated leukocytes
Experiment: Immunostaining and cell population analysis of the adventitia of aortic grafts
Format: in vivo, rat
Details: 56 days after transplantation
From the text: Animals. Male (250-350 g) Brown Norway rats (RT1^n) were used as aortic graft donors and male (250-350 g) Lewis rats (RT11) as recipients. Dawley (400-450 g) rats were used in the balloon injury model. Adult male C57BL/6, C57/S129, p21^−/− and p53^−/− null mice were purchased from Jackson Laboratory (Bar Harbor, Me.). mkk3^(−/−) null mice were generated as described Lu et al. (EMBO. 18:1845-1857 (1999)). The inos^−/− and enos^−/− mice were bred at the University of Pittsburgh. Aortic transplant model. Aortic transplantation was performed as described in Shimizu et al. (Nat. Med. 7:738-741 (2001)). Briefly, 3 to 4 cm of descending aorta was harvested from the donor and implanted between the renal arteries and the aortic bifurcation of the recipient. Both edges of the native abdominal aorta were ligated. Balloon injury model. Balloon angioplasty was carried out as described in Murakami et al. (Atherosclerosis 157:361-368 (2001)). Briefly, a 2 Fr. arterial embolectomy catheter (Baxter, Chicago, Ill.) was inserted into the common carotid artery, and injury was created by inflating the balloon to 5 atmospheres of pressure for 5 minutes. The arteries were flushed and the external carotid artery was ligated, ensuring return of blood flow through the common and internal carotid arteries. Injury of the vessel wall and subsequent pathological analysis was made in a manner that was blinded to the treatment group. CO exposure. CO was delivered to animals as described in Otterbein et al. (Nat. Med. 6:422-428 (2000)). […] In the balloon injury model, rats received either no pretreatment or were exposed to CO (250 ppm) for one hour prior to injury. Following surgery rats were housed in room air for two weeks. Cells. Primary mouse and rat smooth muscle cells (SMC) were isolated and cultured as described in Laubach et al. (Proc Natl Acad Sci USA 92:10688-9 (1995)). Mouse SMC isolated from HO-1^−/− mice were obtained as described in Duckers et al. (Nat. Med. 7:693-698 (2001)). Cell treatment and reagents. Guanylate cyclase inhibitor 1H(1,2,4) oxadiazolo(4,3-a)quinoxalin-1 (ODQ; Calbiochem-Novabiochem, San Diego, Calif.; 10-100 μM) and p38 MAPK inhibitor pyridinyl imidazol SB203580 (Calbiochem; 5-20 μM) were dissolved in DMSO. The cGMP analogue 8-bromo-cGMP sodium salt (8-Br-cGMP; Sigma-Aldrich, St. Louis, Mo.; 10-100 μM) and the PKG inhibitor (10-100 μM; Alexis Biochemicals) were dissolved in water. […] [^3H]thymidine incorporation was measured by scintillation spectroscopy and presented as mean counts/min/well. […] Areas from eight to ten captured images were calculated using digital imaging software as number of pixels corresponding to those areas. Twenty-four to forty-eight sections from each group were statistically analyzed with SPSS software version 10. […]

[1] = adventitia of allogeneic aortic grafts

**Q.** [C-]#[O+] [CO, carbon monoxide] was tested. Which “Accumulation of CD45+/CD3+ T cells, inhibition versus air treated controls” value [1] did it give?
**A.** 57±22%

**Q.** What about the “Accumulation of CD45+/CD68+ monocyte/macrophages, inhibition versus air treated controls” value [1] of the same molecule?
**A.** 65±24%

**Q.** What about the “Expression of MHC II antigens and CD54/ICAM-1 (Mø activation)” value [1] of the same molecule?
**A.** inhibited

**Q.** And the “Graft infiltration by activated leukocytes (CD45+), inhibition versus air treated controls” value (maximal effect, 700 to 1000 ppm of CO)?
**A.** 52±20%
